Tests used:
[1] = biological target: 2-acylglycerol O-acyltransferase 2 (MOGAT2, Homo sapiens) (UniProt Q3SYC2); experiment: Inhibition of recombinant human MGAT2
[2] = biological target: 2-acylglycerol O-acyltransferase 2 (MOGAT2, Homo sapiens) (UniProt Q3SYC2); experiment: Inhibition of recombinant human MGAT2 using 2-monooleoyl glycerol/[1-14C]-oleoyl CoA as substrate after 30 mins by liquid scintillation counting method
[3] = biological target: 2-acylglycerol O-acyltransferase 2 (MOGAT2, Homo sapiens) (UniProt Q3SYC2); experiment: Inhibition of recombinant human MGAT2 expressed in sf9 cells using 2-monooleoyl glycerol/[14C]-oleoyl CoA as substrate by microscintillation counting method

Chain of 2-acylglycerol O-acyltransferase 2 (MOGAT2, Homo sapiens) (Q3SYC2 whole entry, looked up): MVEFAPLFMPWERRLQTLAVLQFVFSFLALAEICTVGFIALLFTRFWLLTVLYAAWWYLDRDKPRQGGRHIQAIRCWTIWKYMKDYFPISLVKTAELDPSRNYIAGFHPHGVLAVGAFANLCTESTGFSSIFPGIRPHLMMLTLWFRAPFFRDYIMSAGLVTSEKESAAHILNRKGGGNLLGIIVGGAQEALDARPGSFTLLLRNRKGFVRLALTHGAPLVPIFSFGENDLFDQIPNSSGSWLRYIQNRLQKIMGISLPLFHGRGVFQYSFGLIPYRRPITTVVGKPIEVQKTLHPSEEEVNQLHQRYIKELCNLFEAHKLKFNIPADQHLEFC

Row | IC50 [1] [nM] | Compound | further results
1 | 0.3 | CCc1ccc(-c2cc(-c3ccc(OCCCCCC(F)(F)F)cc3C(F)(F)F)[nH]c(=O)c2-c2nn[nH]n2)s1 | 
2 | 0.64 | O=C(CNCCCCCOc1ccc(C(F)(F)F)cc1)N1CCc2nc(SC3CCC3)n(-c3ccccc3)c(=O)c2C1 | 
3 | < 1 | O=C1N[C@@]2(CCc3cc(OCCCC(F)(F)F)ccc32)CC(c2cnc(C3CC3)s2)=C1c1noc(=O)[nH]1 | 

The next lines start with the compound.

Row | Compound | IC50 [1] [nM] | further results
4 | CC(C)(C)c1cc(C(C)(C)C)nc(N2CCn3c(nnc3-c3ccc(OC(F)(F)F)cc3)C2)n1 | 19 | 
5 | Cc1ccc(C2=C(C(=O)Nc3ccc(-c4nnn[nH]4)cc3)C(=O)N[C@@](c3ccc(OCCCC(F)(F)F)cc3F)(C(F)(F)F)C2)cc1 | 7 | 
6 | O=C(CCNCC1COc2ccccc2O1)N1CCc2nc(SC3CCC3)n(-c3ccccc3)c(=O)c2C1 (configuration not stated) | 1.1 | 
7 | O=C(CCNC1Cc2ccccc2C1)N1CCc2nc(SC3CCC3)n(-c3ccccc3)c(=O)c2C1 |  | IC50 [2]: 0.38 nM
8 | O=c1c2c(nc(SCc3cccnc3)n1-c1ccccc1)CCN(c1nc3cc(C(F)(F)F)ccc3[nH]1)C2 | 56 | 
9 | CC(C)(C)C1CCN(Cc2ccc([C@H](NS(C)(=O)=O)C(F)(F)F)cc2)CC1 |  | IC50 [3]: 58 nM
10 | O=C1N[C@@](c2ccc(OCCCC(F)(F)F)cc2F)(C(F)(F)F)CC(c2ncc(C3CC3)s2)=C1n1nn[nH]c1=O | 2 | 
11 | CCOC(=O)CCc1ccc(CN2CC(C(=O)N3CCc4nc(SC5CCCCC5)n(-c5ccccc5)c(=O)c4C3)C2)cc1 | 4 | 
12 | CS(=O)(=O)N[C@@H](c1ccc(CNC[C@H]2COc3cccnc3O2)cc1)C(F)(F)F |  | IC50 [3]: 3.8 nM

— BindingDB's records for doi:10.1021/acs.jmedchem.8b00864 (2018)
